In BindingDB's records for doi:10.1007/s00044-011-9593-5 (n/a, 2012):

Biological target: Integrase (Human immunodeficiency virus 1, UniProt Q7ZJM1)
Assay: Inhibition of Human immunodeficiency virus 1 integrase strand transfer activity

Sequence of Integrase (Q7ZJM1 whole entry): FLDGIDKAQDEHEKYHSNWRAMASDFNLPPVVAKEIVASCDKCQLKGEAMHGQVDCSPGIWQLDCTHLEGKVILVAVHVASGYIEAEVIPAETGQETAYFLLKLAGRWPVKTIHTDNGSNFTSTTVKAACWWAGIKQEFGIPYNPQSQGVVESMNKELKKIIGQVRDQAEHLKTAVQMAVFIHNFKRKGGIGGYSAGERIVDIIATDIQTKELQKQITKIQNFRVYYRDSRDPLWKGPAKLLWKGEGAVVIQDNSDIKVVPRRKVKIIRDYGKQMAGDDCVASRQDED

IC50: 250 pM
Structure (SMILES): CCN(CC)CCC[C@@H](C)Nc1ccnc2cc(Cl)ccc12 [Aralen]
